In patent US20230089267A1, “Compositions and Methods For Reducing Immune Intolerance and Treating Autoimmune Disorders” (Lapix Therapeutics, Inc., priority 2021, published 2023):

What was measured:
[1] = test system: Th17 (RORγt) cells; experiment: Human PBMCs in Th17 polarizing environment, Foxp3 and RORγt expression; assay type: cell-based
Experimental: Total human PBMCs isolated from healthy human volunteers were cultured in vitro in a Thl7 polarizing environment as follows: • Day 0: 2×10^5 cells/well were incubated in a 96 round bottomed-well plate (final volume 200 μl) with (i) anti CD3/CD28 microbead for T-cell activation (1 bead/10 cells), (ii) 10 ng/ml IL-6, 2 ng/ml TGFβ and 10 ng/ml IL-23, and (iii) 10 μg/ml anti-IFNγ and 10 μg/ml anti-IL-4. • Day 4: Each well was split into two wells, and 100 μl of media containing the same cytokine/antibody cocktail used at day 0 was added to each well in the presence of ascending doses of Compound 2 (0, 0.1, 0.3, 1, and 3 ng/ml). • Day 9: Cells were washed and stained for surface staining (CD3, CD4), then viability dye to exclude dead cells. Intranuclear staining was performed after cell fixation and permeabilization for transcription factors Foxp3 and RORγt. Cells were washed and fixed for acquisition by Attune NXT flow cytometer. Data were analyzed by FlowJov10.

[2] = test system: NMO mouse model; experiment: AQP4-p201-p220-induced neuromyelitis optica mouse model, fundoscopy; assay type: in vivo, mice; conditions: number of eyes since randomization, 3 μg SC daily, 20 eyes
Experimental: NMO is a CNS autoimmune inflammatory demyelinating disease that causes optico-spinal disorder leading to paralysis and vision loss. NMO mouse model was established by using AQP4-p201-p220 peptide (from Genemed Synthesis Inc.). Briefly, C57BL/6 mice (n=30) were immunized on day 0 with 100 micrograms of the AQP4-p201-p220 peptide emulsified in CFA. Mice were injected subcutaneously at the tail base under anesthesia. On the day of injection (Day 0) and two days later, mice received intraperitoneal injection of pertussis toxin (PTx) in PBS at 200 ng/mouse/dose (0.1 ml).
Prior to immunizing the mice on day 0, both eyes of each of the mice were imaged by fundoscopy. Fundoscopy was employed to study (a) optic disc inflammation, and (b) retinal damage (exudates as evidence of inflammation). Mice were monitored for disease onset daily after one week of immunization (day 7) for clinical symptoms, as per the scoring system developed by Ramadan et al., Brain 2016. Mice with a score of 1.0 or any […] symptoms were immediately randomized into either group A or group B treatment regimens to receive up to 14 days of treatment. Group A (n=10) received Compound 2 3 μg SC daily, and Group B (n=8) served as a control and was treated with a placebo.
Fundoscopy was conducted on day 6 post-immunization and was later performed approximately once every four days, i.e., on days 9, 13, 16, 22, and 26. Each eye was scored for inflammation in the optic disc and retinal damage evident by the appearance of ‘exudates’ (blotchiness) in the fundus image. Eye samples were collected during the onset of disease and post-randomization after at least 9-12 days of treatment and on day 14 (end of study) to assess the histology of both the optic nerve and the retina.

[3] = test system: human B-cells (CD19+CD71+IgM+); experiment: Regulatory B-cell induction in human PBMCs; assay type: cell-based; conditions: 10 ng/ml, five days
Experimental: 2×10^5 Total PBMCs or T-cell depleted PBMCs were cultured in a 96-well plate in the presence of ascending doses of Compound 2 ranging from 0 to 10 ng/ml for five days. At day 5, cells were washed and stained for CD19, CD71 and IgM for 30 minutes on ice, then cells were washed with PBS, and stained with viability dye to exclude dead cells.

`N[C@@H](CNC(=O)Cc1ccc(OCc2cccc3ccccc23)cc1)C(=O)O` [Compound 2, (S)-2-Amino-3-(2-(4-(naphthalen-1-ylmethoxy)phenyl)acetamido)propanoic acid] was tested, and the “decrease in RORγt cells” value [1] was 80%, the “percentage of Th17, mean after treatment” value [1] was 1.1% and the “Cleared/Clearing eyes (recovery)” value [2] was 4. For the same compound, the Maintained/No change [2] was 14, the Worsening conditions [2] was 0 and the “percentage of B-reg (CD19+CD71+IgM+)” value ([3]; T-cell depleted PBMCs) was 14.0%. The “percentage of B-reg (CD19+CD71+IgM+)” value ([3]; total PBMC cultures) was 17.5%.
